This note sets out measurements from patent US7238710B2, “EP4 receptor agonist, compositions and methods thereof” (Merck Frosst Canada, Ltd., priority 2003, dated 2007).

Each structure is given as a SMILES string. Entries after “also recorded” stand apart in the source; their conditions may differ.

Test [1] has as its system ROS 17/2.8 rat osteosarcoma cells. Nature of the test: Intracellular cAMP in ROS 17/2.8 cells. The format is cell-based. Here is the method: (§1) RCT-1 and RCT-3 are clonal cell lines immortalized by SV-40 large T antigen from cells released from fetal rat calvair by a cmbination collagenase/hyaluronidase digestion. RCT-1 cells, derived from cells released during the first 10 minutes of digestion (fraction I), are cultured in RPMI 1640 medium (BRL) with 10% fetal bovine serum and 0.4 mg/ml G418 (BRL). These cells differentiate and express osteoblastic features upon retinoic acid treatment. RCT-3 cells, immortalized from osteoblast-enriched fraction III cells, are cultured in F-12 medium (BRL) with 5% Fetal bovine serum and 0.4 mg/ml G418. TRAB-11 cells are also immortalized by SV40 large T antigen from adult rat tibia and are cultured in RPMI 1640 medium with 10% FBS and 0.4 mg/ml G418. ROS 17/2.8 rat osteosarcoma cells are cultured in F-12 containing 5% FBS. Osteoblast-enriched (fraction III) primary fetal rat calvaria cells are obtained by collagenase/hyaluronidase digestion of calvariae of 19 day-old rat fetuses. See Rodan et al., Growth stimulation of rat calvaria osteoblastic cells by acidic FGF, Endocrinology, 121, 1919-1923 (1987), which is incorporated by reference herein in its entirety. Cells are released during 30-50 minutes digestion (fraction III) and are cultured in F-12 medium containing 5% FBS. […]

Test [2] concerns RCT-3 cells. The test is described as follows: Intracellular cAMP in RCT-3 cells. The format is cell-based, rat. Here is the method: as §1
Test [3] relates to TRAB-11 cells. Nature of the test: Intracellular cAMP in TRAB-11 cells. The format is cell-based, rat. On the procedure: as §1
For test [4], the system named is RP-1 periosteal cells. Nature of the test: EP4 and EP2 mRNA expression (Northern blot) in RP-1 periosteal cells. The following applies: RP-1 cells. The test is classed as cell-based, rat. Here is the method: RP-1 periosteal cells are spontaneously immortalized from primary cultures of periosteal cells from tibae of 4-week old Sprague-Dawley rats and are cultured in DMEM (BRL, Gaithersburg, Md.) with 10% fetal bovine serum (JRH Biosciences, Lenexa, Kans.).
(§2) Total RNA is extracted from the tibial metaphysis or diaphysis and calvaria using a guanidinium isothiocyanate-phenol-chloroform method after pulverizing frozen bone samples by a tissue homogenizer. See P. Chomczynski et al., Single-step method of RNA isolation by acid guanidium thiocyanate-phenol-chloroform extraction., Analyt Biochem, 162, 156-159 (1987), which is incorporated by reference herein in its entirety. RNA samples ([…]) are separated on 0.9% agarose/formaldehyde gels and transferred onto nylon membranes (Boehringer Mannheim, Germany). Membranes are prehybridized in Hybrisol I (Oncor, Gaithersburg, Md.) and 0.5 mg/ml sonicated salmon sperm DNA (Boehringer) at 42° C. for 3 hours and are hybridized at 42° C. with rat EP2 and mouse EP4 cDNA probes labeled with [^32P]dCTP (Amersham, Buckinghamshire, UK) by random priming using the rediprime kit (Amersham). After hybridization, membranes are washed 4 times in 2×SSC+0.1% SDS at room temperature for a total of 1 hour and once with 0.2×SSC+0.1% SDS at 55° C. for 1 hour and then exposed to Kodak XAR 2 film at −70° C. using intensifying screens. After developing the films, bound probes are removed twice with 0.1% SDS at 80° C. and membranes are hybridized with a human GAPDH (Glyceraldehyde 3-Phosphate Dehydrogenase) cDNA probe (purchased from Clontech, Palo Alto, Calif.) for loading control.
PGE2 enhances its own production via upregulation of cyclooxygenase 2 expression in osteoblasts and in bone tissue thus autoamplifying its own effects. PGE2 also increases the levels of EP4 mRNA. RP-1 cells are immortalized from a primary culture of adult rat tibia periosteum is examined. These cells express osteoblast phenotypic markers upon confluence and form mineralized bone matrix when implanted in nude mice. […]

For test [5], the system named is RCT-3 cells. Nature of the test: EP4 mRNA expression (Northern blot) in RCT-3 cells. The format is cell-based, rat. Here is the method: as §1
For test [6], the system named is bone tissue (tibia, calvaria). Nature of the test: EP4 and EP2 mRNA levels in vivo in bone tissue (Northern blot). The arrangement: species or system rat. On the procedure:
(§3) For mRNA localization experiments, 5-week old Sprague-Dawley rats (Charles River) are euthanized by CO2, their tibiae and calvariae are excised, cleaned of soft tissues and frozen immediately in liquid nitrogen. For EP4 regulation experiments, 6-week old rats are given a single injection of either vehicle (7% ethanol in sterile water) or an anabolic dose of PGE2 (Cayman Chemical, Ann Arbor, Mich.), 3-6 mg/kg in the same vehicle) intraperitoneally. Animals are euthanized at several time points post-injection and their tibiae and calvariae, as well as samples from lung and kidney tissues are frozen in liquid nitrogen.
as §2, with “control. […]” for “control.”

Test [7] deals with bone marrow cells. Nature of the test: In situ hybridization of EP4 mRNA in bone tissue. The test is classed as in vivo, rat. The settings on record: rats, single anabolic dose. On the procedure: as §3
Frozen tibiae are sectioned coronally at […] thickness and sections are mounted on charged slides (Probe On Plus, Fisher Scientific, Springfield, N.J.) and are kept at −70° C. until hybridization. cRNA probes are labeled with ^35S-UTPgS (ICN, Costa Mesa, Calif.) using a Riboprobe II kit (Promega Madison, Wis.). Hybridization is performed overnight at 50° C. […]
In situ hybridization is used in order to localize cells expressing EP4 in bone. In control experiment (vehicle-injected) rats, low expression of EP4 is detected in bone marrow cells. […]

Setting [8] is: five-week-old male rats, injected 3-6 mg/Kg.

In the case of `CCCCC[C@H](O)/C=C/[C@H]1[C@H](O)CC(=O)[C@@H]1C/C=C\CCCC(=O)O` [PGE2], the “effect on intracellular cAMP” value is on record as “no effect” in test [1], “markedly induced” in test [2] and “markedly induced” in test [3]. The “EP2 mRNA” value in test [4] is “not expressed; also recorded: does not induce”. The “EP4 mRNA levels” value in test [4] (10^-6 M) is listed as “rapidly increases”; in test [5] it was “no effect”. Further, in test [4] (10^-6 M), the “time of peak EP4 mRNA levels after treatment” value worked out at 2 h. The “EP4 mRNA levels in the tibial diaphysis” value in test [6] (setting [8]) is on record as “rapidly increased”. For the same molecule, the “time of peak EP4 mRNA levels in the tibial diaphysis after injection” value in test [6] (setting [8]) was found to be 2 h. The “EP2 mRNA in bone tissue” value in test [6] (rats) is “does not induce”. In test [7], the “expression of EP4 in bone marrow cells” value is reported as “increased”.
